Tests used:
Format in all cases: biochemical
[1] = target: recombinant human cathepsin S (hCatS) (Homo sapiens (Human), UniProt P25774); assay: CatS functional enzyme assay (fluorogenic substrate Z-VVR-AMC); conditions: Ki calculated by Cheng Prusoff equation; pH 6.5
Protocol: (§1) Reference and test compounds were assayed for inhibitory potency (IC50) against human cathepsins using the following assay setups:
(§2) Recombinant human cathepsins (CatS, CatK, CatL, CatB) were purchased from a Enzo Life Sciences. All assays were carried out in 96-well format using a buffer of 50 mM KH2PO4, 50 mM NaCl, 2 mM EDTA, 0.5 mM DTT and 1% Triton-X-100, pH 6.5 for Cathepsin S and a buffer of 50 mM NaOAc, 10 mM EDTA, 1 mM DTT and 0.01% Triton-X-100, pH 5.5 for CatK/L/B. For CatS, the enzyme (0.0007 mU/well) was incubated with fluorogeninc substrate (Z-VVR-AMC, 5 μM) at RT for 10 min. For CatK the enzyme (0.00175 mU/well) was incubated with fluorogeninc substrate (Z-FR-AMC, 40 μM) at RT for 10 min. For CatL, the enzyme (0.000874 mU/well) was incubated with fluorogeninc substrate (Z-VVR-AMC, 40 μM) at RT for 10 min. For CatB the enzyme was incubated with fluorogenic substrate (Z-VVR-AMC, 200 μM) at RT for 10 min. Flourogenic substrate turnover was detected using a microplate reader (Synergyl™ H4, BioTek). Ki values were calculated using the Cheng Prusoff equation (Cheng & Prosoff 1973).

[2] = target: recombinant human cathepsin K (hCatK) (Homo sapiens (Human), UniProt P43235); assay: CatK functional enzyme assay (fluorogenic substrate Z-FR-AMC); conditions: for Ki: Ki calculated by Cheng Prusoff equation, pH 5.5; for Selectivity Ki(hCatS)/Ki(hCatK): ratio of Ki hCatS to Ki hCatK
recombinant human cathepsin K (hCatK), sequence (P43235 115-329): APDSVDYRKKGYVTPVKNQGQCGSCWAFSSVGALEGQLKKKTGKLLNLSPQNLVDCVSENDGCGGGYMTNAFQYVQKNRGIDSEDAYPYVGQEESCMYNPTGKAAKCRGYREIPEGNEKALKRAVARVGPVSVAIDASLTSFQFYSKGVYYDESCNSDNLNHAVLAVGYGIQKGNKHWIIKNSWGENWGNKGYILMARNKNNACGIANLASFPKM
Protocol: as §1, §2

[3] = target: recombinant human cathepsin L (hCatL) (Homo sapiens (Human), UniProt P07711); assay: CatL functional enzyme assay (fluorogenic substrate Z-VVR-AMC); conditions: pH 5.5
recombinant human cathepsin L (hCatL), sequence (P07711 114-333): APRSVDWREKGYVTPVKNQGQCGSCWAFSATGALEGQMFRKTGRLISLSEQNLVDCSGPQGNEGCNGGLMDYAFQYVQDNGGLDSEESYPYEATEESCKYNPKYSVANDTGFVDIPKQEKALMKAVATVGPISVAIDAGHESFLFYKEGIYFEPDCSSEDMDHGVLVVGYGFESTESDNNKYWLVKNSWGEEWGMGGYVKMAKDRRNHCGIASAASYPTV
Protocol: as §1, §2

recombinant human cathepsin S (hCatS), sequence (P25774 115-331): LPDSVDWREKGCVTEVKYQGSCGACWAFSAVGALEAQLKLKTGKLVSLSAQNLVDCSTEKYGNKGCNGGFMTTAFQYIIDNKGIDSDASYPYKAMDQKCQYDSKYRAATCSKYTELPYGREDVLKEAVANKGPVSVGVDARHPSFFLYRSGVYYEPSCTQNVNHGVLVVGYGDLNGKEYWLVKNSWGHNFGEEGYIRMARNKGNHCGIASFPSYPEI

Row | Ki [1] [nM] | Ki [2] [nM] | Selectivity Ki(hCatS)/Ki(hCatK) [2] | inhibition at 31.6 µM [3] [%] | Compound
1 | 82.4 | 14.8 | 6 |  | O=C(N[C@H](C(=O)N1C[C@H](Cl)[C@H]2OCC(=O)[C@H]21)C1CCCC1)c1cccc(-c2cccnc2)c1 [Comparative Example C1, N—((S)-2-((3aS,6S,6aS)-6-chloro-3-oxotetrahydro-2H-furo[3,2-b]pyrrol-4(5H)-yl)-1-cyclopentyl-2-oxoethyl)-3-(pyridin-3-yl)benzamide, reference compound]
2 | 151 | 1.5 | 99 | 72 | O=C(N[C@H](C(=O)N1C[C@H](Cl)[C@H]2OCC(=O)[C@H]21)C1CCCC1)c1ccc(-c2cccnn2)s1 [Example 1, N—((S)-2-((3aS,6S,6aS)-6-chloro-3-oxotetrahydro-2H-furo[3,2-b]pyrrol-4(5H)-yl)-1-cyclopentyl-2-oxoethyl)-5-(pyridazin-3-yl)thiophene-2-carboxamide]
3 | 308 | 0.7 | 453 | 45 | O=C(N[C@H](C(=O)N1C[C@H](Cl)[C@H]2OCC(=O)[C@H]21)C1CCCC1)c1ccc(-c2cccnc2)s1 [Example 2, N—((S)-2-((3aS,6S,6aS)-6-chloro-3-oxotetrahydro-2H-furo[3,2-b]pyrrol-4(5H)-yl)-1-cyclopentyl-2-oxoethyl)-5-(pyridin-3-yl)thiophene-2-carboxamide]
4 | 110 | 2.1 | 53 | 73 | O=C(N[C@H](C(=O)N1C[C@H](Cl)[C@H]2OCC(=O)[C@H]21)C1CCCC1)c1ccc(-c2cncnc2)s1 [Example 3, N—((S)-2-((3aS,6S,6aS)-6-chloro-3-oxotetrahydro-2H-furo[3,2-b]pyrrol-4(5H)-yl)-1-cyclopentyl-2-oxoethyl)-5-(pyrimidin-5-yl)thiophene-2-carboxamide]
5 | 263 | 5.3 | 50 | 62 | O=C(N[C@H](C(=O)N1C[C@H](Cl)[C@H]2OCC(=O)[C@H]21)C1CCCC1)c1ncc(-c2cccnn2)s1 [Example 7, N—((S)-2-((3aS,6S,6aS)-6-chloro-3-oxotetrahydro-2H-furo[3,2-b]pyrrol-4(5H)-yl)-1-cyclopentyl-2-oxoethyl)-5-(pyridazin-3-yl)thiazole-2-carboxamide]
6 | 160 | 0.8 | 210 | 50 | O=C(N[C@H](C(=O)N1C[C@H](Cl)[C@H]2OCC(=O)[C@H]21)C1CCCC1)c1ccc(-c2ccncc2)s1 [Example 8, N—((S)-2-((3aS,6S,6aS)-6-chloro-3-oxotetrahydro-2H-furo[3,2-b]pyrrol-4(5H)-yl)-1-cyclopentyl-2-oxoethyl)-5-(pyridin-4-yl)thiophene-2-carboxamide]

Row | Compound | Ki [1] [nM] | Ki [2] [nM] | Selectivity Ki(hCatS)/Ki(hCatK) [2] | inhibition at 31.6 µM [3] [%]
7 | O=C(N[C@H](C(=O)N1C[C@H](Cl)[C@H]2OCC(=O)[C@H]21)C1CCCC1)c1ccc(-c2ccnnc2)s1 [Example 4, N—((S)-2-((3aS,6S,6aS)-6-chloro-3-oxotetrahydro-2H-furo[3,2-b]pyrrol-4(5H)-yl)-1-cyclopentyl-2-oxoethyl)-5-(pyridazin-4-yl)thiophene-2-carboxamide] | 39.8 | 1.8 | 22 | 73
8 | O=C(N[C@H](C(=O)N1C[C@H](Cl)[C@H]2OCC(=O)[C@H]21)C1CCCC1)c1ccc(-c2cnccn2)s1 [Example 5, N—((S)-2-((3aS,6S,6aS)-6-chloro-3-oxotetrahydro-2H-furo[3,2-b]pyrrol-4(5H)-yl)-1-cyclopentyl-2-oxoethyl)-5-(pyrazin-2-yl)thiophene-2-carboxamide] | 355 | 2.1 | 169 | 81
9 | O=C(N[C@H](C(=O)N1C[C@H](Cl)[C@H]2OCC(=O)[C@H]21)C1CCCC1)c1ccc(-c2cncc(F)c2)s1 [Example 6, N—((S)-2-((3aS,6S,6aS)-6-chloro-3-oxotetrahydro-2H-furo[3,2-b]pyrrol-4(5H)-yl)-1-cyclopentyl-2-oxoethyl)-5-(5-fluoropyridin-3-yl)thiophene-2-carboxamide] | 174 | 3.1 | 55 | 42

Reference: patent US9802947B2, “3-oxo-tetrahydro-furo[3,2-b]pyrrol-4(5H)-yl) derivatives II” (GRÜNENTHAL GMBH, priority 2014, dated 2017)
